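Step 1: Grow cells in 96-well plates. Step 2: Expose to compound for 48 hours at 5 concentrations. Step 3: Interpolate endpoints linearly; if unreached, use highest concentration. GI50: concentration for 50% inhibition of growth.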 Active and inactive are the calls of the source. Rule as the data show it: active = GI50 up to about 1.1 µM and inactive = higher.
Key:
Assay in all cases: inhibition of tumour cell growth, NCI panel, 48 h
OVCAR-4 = tested on: OVCAR-4
SF-268 = tested on: SF-268
UO-31 = tested on: UO-31
SK-MEL-5 = tested on: SK-MEL-5
EKVX = tested on: EKVX
T47D = tested on: T47D
NCI-H226 = tested on: NCI-H226
M14 = tested on: M14
NCI-H23 = tested on: NCI-H23
COLO 205 = tested on: COLO 205
UACC-62 = tested on: UACC-62
K562 = tested on: K562
NCI/ADR-RES = tested on: NCI/ADR-RES
Malme-3M = tested on: Malme-3M
OVCAR-5 = tested on: OVCAR-5
IGROV-1 = tested on: IGROV-1
MCF7 = tested on: MCF7
SK-MEL-28 = tested on: SK-MEL-28
HT-29 = tested on: HT-29
BT-549 = tested on: BT-549
LOX IMVI = tested on: LOX IMVI
OVCAR-8 = tested on: OVCAR-8
HOP-92 = tested on: HOP-92
SNB-75 = tested on: SNB-75
786-0 = tested on: 786-0
CAKI-1 = tested on: CAKI-1
MOLT-4 = tested on: MOLT-4
NCI-H460 = tested on: NCI-H460
HCC 2998 = tested on: HCC 2998
ACHN = tested on: ACHN
A549 = tested on: A549
SR = tested on: SR
MDA-MB-231 = tested on: MDA-MB-231
RXF 393 = tested on: RXF 393
SF-539 = tested on: SF-539
HCT-15 = tested on: HCT-15
CCRF-CEM = tested on: CCRF-CEM
TK-10 = tested on: TK-10
NCI-H522 = tested on: NCI-H522
U-251 = tested on: U-251
Hs-578T = tested on: Hs-578T
OVCAR-3 = tested on: OVCAR-3
SN12C = tested on: SN12C
SK-MEL-2 = tested on: SK-MEL-2
KM12 = tested on: KM12
SF-295 = tested on: SF-295
PC-3 = tested on: PC-3
SK-OV-3 = tested on: SK-OV-3
MDA-MB-435 = tested on: MDA-MB-435
HOP-62 = tested on: HOP-62
HCT-116 = tested on: HCT-116
SNB-19 = tested on: SNB-19
DU-145 = tested on: DU-145
RPMI-8226 = tested on: RPMI-8226
A498 = tested on: A498
SW-620 = tested on: SW-620
HL-60 = tested on: HL-60
UACC-257 = tested on: UACC-257
MDA-N = tested on: MDA-N

With `Cc1ccc(C)c(C2NC(=O)c3ccccc3N2)c1` (stereo not drawn) the GI50 (OVCAR-4) was 6.27 µM (inactive), the GI50 (SF-268) was 3.27 µM (inactive) and the GI50 (UO-31) was 7.71 µM (inactive). The GI50 (SK-MEL-5) was 0.335 µM (active), the GI50 (EKVX) was 5.07 µM (inactive) and the GI50 (T47D) was 2.72 µM (inactive). For the same compound, the GI50 (NCI-H226) was 2.95 µM (inactive), the GI50 (M14) was 0.719 µM (active) and the GI50 (NCI-H23) was 6.04 µM (inactive). For the same compound, the GI50 (COLO 205) was 0.703 µM (active), the GI50 (UACC-62) was 1.31 µM (inactive) and the GI50 (K562) was 0.274 µM (active). For the same compound, the GI50 (NCI/ADR-RES) was 0.7 µM (active), the GI50 (Malme-3M) was 0.668 µM (active) and the GI50 (OVCAR-5) was 6.18 µM (inactive). For the same compound, the GI50 (IGROV-1) was 1.13 µM (inactive), the GI50 (MCF7) was 0.454 µM (active) and the GI50 (SK-MEL-28) was 12.5 µM (inactive). The GI50 (HT-29) was 0.445 µM (active), the GI50 (BT-549) was 5.25 µM (inactive) and the GI50 (LOX IMVI) was 2.05 µM (inactive). For the same compound, the GI50 (OVCAR-8) was 4.31 µM (inactive), the GI50 (HOP-92) was 37.2 µM (inactive) and the GI50 (SNB-75) was 0.423 µM (active). The GI50 (786-0) was 1.76 µM (inactive), the GI50 (CAKI-1) was 3.27 µM (inactive) and the GI50 (MOLT-4) was 0.506 µM (active). For the same compound, the GI50 (NCI-H460) was 0.916 µM (active), the GI50 (HCC 2998) was 2.8 µM (inactive) and the GI50 (ACHN) was 4.83 µM (inactive). For the same compound, the GI50 (A549) was 1.79 µM (inactive), the GI50 (SR) was 0.555 µM (active) and the GI50 (MDA-MB-231) was 10.3 µM (inactive). The GI50 (RXF 393) was 1.95 µM (inactive), the GI50 (SF-539) was 0.587 µM (active) and the GI50 (HCT-15) was 0.515 µM. For the same compound, the GI50 (CCRF-CEM) was 0.753 µM (active), the GI50 (TK-10) was 6.82 µM (inactive) and the GI50 (NCI-H522) was 0.689 µM (active). The GI50 (U-251) was 1.21 µM (inactive), the GI50 (Hs-578T) was 1.09 µM (active) and the GI50 (OVCAR-3) was 0.265 µM (active). For the same compound, the GI50 (SN12C) was 4.69 µM (inactive), the GI50 (SK-MEL-2) was 1.29 µM (inactive) and the GI50 (KM12) was 2.99 µM (inactive). The GI50 (SF-295) was 1.12 µM (inactive), the GI50 (PC-3) was 1.06 µM (active) and the GI50 (SK-OV-3) was 2.02 µM (inactive). For the same compound, the GI50 (MDA-MB-435) was 0.0792 µM (active), the GI50 (HOP-62) was 1.93 µM (inactive) and the GI50 (HCT-116) was 0.601 µM (active). For the same compound, the GI50 (SNB-19) was 2.1 µM (inactive), the GI50 (DU-145) was 2.56 µM (inactive) and the GI50 (RPMI-8226) was 2.11 µM (inactive). The GI50 (A498) was 3.62 µM (inactive), the GI50 (SW-620) was 0.472 µM (active) and the GI50 (HL-60) was 0.118 µM (active). For the same compound, the GI50 (UACC-257) was 12 µM (inactive) and the GI50 (MDA-N) was 0.0986 µM (active).

For `COC(=O)[C@H](C)NC(=O)C1(CNC(=O)[C@H](C)NC(=O)OC(C)(C)C)Cc2ccccc2-c2ccccc2C1`, the GI50 (OVCAR-4) was 21 µM (inactive), the GI50 (SF-268) was 19.6 µM (inactive) and the GI50 (UO-31) was 4.67 µM (inactive). For the same compound, the GI50 (SK-MEL-5) was 23.3 µM (inactive), the GI50 (EKVX) was 19.3 µM (inactive) and the GI50 (T47D) was 21.8 µM (inactive). For the same compound, the GI50 (NCI-H226) was 24.5 µM (inactive), the GI50 (M14) was > 45.9 µM (inactive) and the GI50 (NCI-H23) was 18 µM (inactive). For the same compound, the GI50 (COLO 205) was 22.3 µM (inactive), the GI50 (UACC-62) was 16.7 µM (inactive) and the GI50 (K562) was 24.7 µM (inactive). The GI50 (NCI/ADR-RES) was 17.5 µM (inactive), the GI50 (Malme-3M) was 19.1 µM (inactive) and the GI50 (OVCAR-5) was 19.9 µM (inactive). The GI50 (IGROV-1) was 16.3 µM (inactive), the GI50 (MCF7) was 37.5 µM (inactive) and the GI50 (SK-MEL-28) was > 47.3 µM (inactive). For the same compound, the GI50 (HT-29) was 17.4 µM (inactive), the GI50 (BT-549) was > 43.6 µM (inactive) and the GI50 (LOX IMVI) was 3.85 µM (inactive). The GI50 (OVCAR-8) was 6.78 µM (inactive), the GI50 (HOP-92) was 5.51 µM (inactive) and the GI50 (SNB-75) was 23.4 µM (inactive). For the same compound, the GI50 (786-0) was 19.6 µM (inactive), the GI50 (CAKI-1) was 12.2 µM (inactive) and the GI50 (MOLT-4) was 16.7 µM (inactive). For the same compound, the GI50 (NCI-H460) was 19.7 µM (inactive), the GI50 (HCC 2998) was 24.9 µM (inactive) and the GI50 (ACHN) was 22.8 µM (inactive). The GI50 (A549) was 19.4 µM (inactive), the GI50 (SR) was 20 µM (inactive) and the GI50 (MDA-MB-231) was 17.9 µM (inactive). The GI50 (RXF 393) was 25.5 µM (inactive), the GI50 (SF-539) was 27 µM (inactive) and the GI50 (HCT-15) was 15.7 µM. For the same compound, the GI50 (CCRF-CEM) was 18.7 µM (inactive), the GI50 (TK-10) was 27 µM (inactive) and the GI50 (NCI-H522) was 7.52 µM (inactive). For the same compound, the GI50 (U-251) was 17.9 µM (inactive), the GI50 (Hs-578T) was > 37.2 µM (inactive) and the GI50 (OVCAR-3) was 17.5 µM (inactive). For the same compound, the GI50 (SN12C) was 17.7 µM (inactive), the GI50 (SK-MEL-2) was 40 µM (inactive) and the GI50 (KM12) was 16.1 µM (inactive). The GI50 (SF-295) was 21.4 µM (inactive), the GI50 (PC-3) was 23.8 µM (inactive) and the GI50 (SK-OV-3) was 30.5 µM (inactive). For the same compound, the GI50 (MDA-MB-435) was 20 µM (inactive), the GI50 (HOP-62) was 27 µM (inactive) and the GI50 (HCT-116) was 33.8 µM (inactive). The GI50 (SNB-19) was > 56.9 µM (inactive), the GI50 (DU-145) was 14.9 µM (inactive) and the GI50 (RPMI-8226) was 7.59 µM (inactive). For the same compound, the GI50 (A498) was 35.7 µM (inactive), the GI50 (SW-620) was 26.2 µM (inactive) and the GI50 (HL-60) was 19.5 µM (inactive). The GI50 (UACC-257) was > 48.2 µM (inactive) and the GI50 (MDA-N) was 26.1 µM (inactive).

— ChEMBL document CHEMBL1201862, “PubChem BioAssay data set” (2004)
